In the experiment the target is T1, MAGL protein (Homo sapiens, UniProt Q99685).
T1 sequence (Q99685 1-303): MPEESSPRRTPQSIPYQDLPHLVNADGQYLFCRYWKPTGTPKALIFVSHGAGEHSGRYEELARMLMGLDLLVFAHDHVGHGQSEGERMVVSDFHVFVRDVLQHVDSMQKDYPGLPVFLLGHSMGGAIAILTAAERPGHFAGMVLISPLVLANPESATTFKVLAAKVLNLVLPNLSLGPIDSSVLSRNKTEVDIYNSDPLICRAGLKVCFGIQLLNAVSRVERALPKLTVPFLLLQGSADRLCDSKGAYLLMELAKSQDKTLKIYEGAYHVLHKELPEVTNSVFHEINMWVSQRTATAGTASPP
In words: 2-AG assay: MAGL inhibitory activity by hydrolysis of 2-arachidonoylglycerol to arachidonic acid, followed by mass spectrometry. It counts as biochemical. The conditions noted are these: 8 μM 2-arachidonoylglycerol, 15 min preincubation, 30 min reaction at RT, RapidFire MS readout. Put shortly:
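Activity was measured by RapidFire SPE–triple-quad MS as the ratio of arachidonic acid to d8-arachidonic acid after 2-AG hydrolysis (8 μM substrate, 30 min, RT, acetonitrile quench). Compounds, tested from 12.5 μM down to […], were first preincubated 15 min with MAGL in TRIS/EDTA/Tween-20 buffer containing 2.5% DMSO.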

Turning to `O=C(N1CC(C23CC(c4nnc(CC(F)(F)F)o4)(C2)C3)C1)N1CC2(CC(c3nnc(C4CC4)[nH]3)C2)C1` [compound 344], half-maximal inhibition (IC50) was put at 7.59 nM. This lies in the single-digit nanomolar range.
Then `N=S(=O)(c1ccc(CC2CC3(C2)CN(C(=O)N2CC4(CC(c5nc(C6(O)CC6)n[nH]5)C4)C2)C3)c(F)c1)C(F)(F)F` (stereo not shown) [compound 715], with 0.45 nM.
Then `CS(=O)(=O)c1cc(CC2CC3(C2)CN(C(=O)N2CC4(CC(c5nnc(C6(O)CC6)[nH]5)C4)C2)C3)ccc1C(F)(F)F` [compound 42], with 0.88 nM.
Then `CP(C)(=O)c1ccc(CC2CC3(C2)CN(C(=O)N2CC4(CC(c5nnc(C6CC6)[nH]5)C4)C2)C3)cc1` [compound 926], with 6.58 nM; and `Cc1cc(C(F)F)n(CC2CC3(C2)CN(C(=O)N2CC4(CC(c5nc(C6CC6)n[nH]5)C4)C2)C3)n1` [compound 883], with 0.39 nM; and `N=S(=O)(c1ccc(CC2CC3(C2)CN(C(=O)N2CC4(CC(c5nc(C6CC(F)(F)C6)n[nH]5)C4)C2)C3)cc1)C(F)(F)F` (stereo not shown) [compound 687], with 54.1 nM.
For the compound `O=C(N1CC2(CC(c3nc(C4CC4)n[nH]3)C2)C1)N1CC2(CN(Cc3ncoc3C(F)(F)F)C2)C1` [compound 701], the 50% inhibitory concentration (IC50) (as a rule, the midpoint of a concentration-inhibition curve) amounted to 64.4 nM.
The compound `O=C(N1CC2(CC(Cc3nsc(C(F)(F)F)n3)C2)C1)N1CC2(CC(c3nc(C4CC4)n[nH]3)C2)C1` [compound 450] came in with an IC50 of 0.24 nM.
The result for `O=C(N1CC2(CC(Cc3ccc(C(F)(F)F)nc3)C2)C1)N1CC2(CC(c3nnc(C4CCC4)[nH]3)C2)C1` [compound 7] reads 3.65 nM; that for `O=C(N1CC2(CC(Cc3ccc(S(=O)(=O)C4CC4)cc3)C2)C1)N1CC2(CC(c3nc(C4CC4)n[nH]3)C2)C1` [compound 859], 0.19 nM; that for `O=C(N1CC2(CC(Cc3ccc(F)cc3F)C2)C1)N1CC2(CC(c3nc(C4COC4)n[nH]3)C2)C1` [compound 835], 2.37 nM.
The result for `O=C(N1CC2(CC(Cc3ccc(F)cc3C(F)(F)F)C2)C1)N1CC2(CC(c3nc(C4CC(F)(F)C4)n[nH]3)C2)C1` [compound 468] reads 2.5 nM; that for `O=C(N1CC(c2ccc(N3CCC(C(F)(F)F)CC3=O)cc2)C1)N1CC2(CC(c3nnc(C4CC4)[nH]3)C2)C1` (single isomer, unassigned) [compound 280], 3.82 nM; that for `O=C(N1CC(N(Cc2ccc(C(F)(F)F)cc2F)C2CC2)C1)N1CC2(CC(c3nnc(C4CC4)[nH]3)C2)C1` [compound 200], 69.7 nM.
The result for `NC(=O)C1CCCCN1c1ccc(C2CN(C(=O)N3CC4(CC(c5nnc(C6CC6)[nH]5)C4)C3)C2)cc1` (stereo not shown) [compound 384] reads 2.64 nM; that for `O=C(N1CC2(CC(c3nc(C4CC4)n[nH]3)C2)C1)N1CC2(CC(C(F)(F)c3cnc(C(F)(F)F)cn3)C2)C1` [compound 944], 0.96 nM.
The compound `O=C(N1CC(c2cnc(N3CC[C@H](C(F)(F)F)C3)nc2)C1)N1CC2(CC(c3nc(C4CC4)n[nH]3)C2)C1` (single isomer, unassigned) [compound 266] came in with an IC50 of 2.93 nM.
The result for `CS(=O)(=O)c1ccc(OCC2CCN(C(=O)N3CC4(CC(c5n[nH]c(C6CC6)n5)C4)C3)CC2)cc1C(F)(F)F` [Example 924, [6-(5-cyclopropyl-1H-1,2,4-triazol-3-yl)-2-azaspiro[3.3]heptan-2-yl]-[4-[[4-mesyl-3-(trifluoromethyl)phenoxy]methyl]piperidino]methanone] reads 49.2 nM; that for `O=C(N1CC(c2ccc(N3CC(O)(C(F)(F)F)C3)nc2)C1)N1CC2(CC(c3nnc(C4CC4)[nH]3)C2)C1` [compound 275], 2.07 nM; that for `O=C(N1CC(OCc2ccc(S(=O)(=O)C(F)(F)F)cc2F)C1)N1CC2(CC(c3nc(C4CC(F)(F)C4)n[nH]3)C2)C1` [compound 502], 262 nM.
Then `O=C(N1CC2(CC(Cc3ccc(C(F)(F)F)cc3F)C2)C1)N1CC2(CC(c3nc(C4COC4)n[nH]3)C2)C1` [compound 768], with 0.08 nM; and `O=C(N1CC2(CC(NS(=O)(=O)c3ccc(C(F)(F)F)cc3)C2)C1)N1CC2(CC(c3nnc(C4CC4)[nH]3)C2)C1` [compound 223], with 0.33 nM.

(Values after US20250099448A1, “HETEROCYCLIC COMPOUNDS” (Hoffmann-La Roche Inc., priority 2022, published 2025).)
